In assay [1] the test system is human low density lipoproteins (LDLs). Put plainly: protective activity against oxidation of human LDLs induced by copper sulphate (TBARS determination). It counts as biochemical. The conditions noted are these: copper sulphate 5 μM, 3 hours at 37° C., read-out: IC50, protection against the oxidation of LDLs. The protocol:
The dose-effect relationship of those compounds was compared with that of probucol and a soluble analogue of vitamin E, trolox.
The anti-oxidant activity of the compounds was measured according to the method of Wallin et al. (Analytical Biochemistry, 1993, 208, 10-15).
Human LDLs are incubated for 3 hours at 37° C. in the presence of an oxidising agent, copper sulphate at a concentration of 5 μM, and of the compound to be tested at concentrations ranging from 10^-8 M to 2.5×10^-6 M. A non-oxidised control (LDLs only) and an oxidised control (LDLs plus copper sulphate) are also included in each of the series of tests.
The products of the LDL oxidation reaction are quantified by the colorimetric determination of "thiobarbituric acid reactive substances" (TBARS).
The protective activity of the tested compounds is expressed by the IC50 value, which corresponds to the concentration of product required to inhibit by 50% the oxidation of LDLs observed in the absence of product. The IC50 value was calculated from the dose-response curve.

The subject of assay [2] is plasma lipids (triglycerides, total cholesterol). Put plainly: hypolipaemic activity in vivo in a diet-induced model of combined hyperlipaemia in the hamster. The arrangement: species or system Golden Syrian hamster. The conditions noted are these: 200 mg/kg/day per os, 1 week; for hypocholesterolaemic effect compared with bezafibrate (in words) / triglyceride-lowering effectiveness compared with bezafibrate (in words): hamster, bezafibrate 200 mg/kg/day; for change in vivo at 200 mg/kg: Mesocricetus auratus, po, 168 h, hamsters on lipid-rich diet, versus control group, bezafibrate: mean ± sem of five experiments. The protocol: The hypolipaemic activity of certain representative compounds of the invention was evaluated in vivo in a diet-induced model of combined hyperlipaemia in the hamster.
Golden Syrian hamsters are given a diet rich in lipids (standard diet+0.5% cholesterol+10% cocoa oil) for 3 weeks before the beginning of treatment. That diet induces hypercholesterolaemia and hypertriglyceridaemia.
The products are prepared in tragacanth gum and are administered per os by forced gastric feeding for 1 week at a dose of 200 mg/kg/day. Each product is tested on a group of 6 animals. A placebo group (control) and a group of animals treated with a reference product (bezafibrate at a dose of 200 mg/kg/day) are included in each experiment.
At the end of the treatment, the animals are anaesthetised with ether. Blood is removed by abdominal puncture and the triglycerides and total cholesterol in the serums are determined. Five independent experiments were carried out in accordance with that protocol in order to evaluate the hypolipaemic effect of thirteen compounds of this invention.
The results are shown in Table B. The effect of the treatment is expressed as a percentage variation by comparison with the control group, calculated from the means of the absolute values of triglycerides and of total cholesterol. A negative value thus reflects a hypolipaemic effect of the treatment indicated. The values shown for bezafibrate represent the mean values (±sem) of five experiments.

Where [3] appears, read: read-out: Total cholesterol (% variation/control).
Setting [4] is: read-out: Triglycerides (% variation/control).

A word on the IC50: it is the concentration at which inhibition is half-maximal.

Where two headings read alike, the source gives them in different places.

As for `CC(C)(CCCOc1ccc(CCCSc2cc(C(C)(C)C)c(O)c(C(C)(C)C)c2)cc1)C(=O)O` [Example 3, 2,2-dimethyl-5-{4-[3-(3,5-di-tert-butyl-4-hydroxyphenylthio)propyl]phenoxy}pentanoic acid], the IC50 in assay [1] turned out to be 0.53 µM. The “hypocholesterolaemic effect compared with bezafibrate (in words)” value in assay [2] was “hypocholesterolaemic effect at least as great as bezafibrate”. Also, the “triglyceride-lowering effectiveness compared with bezafibrate (in words)” value in assay [2] is given as “statistically at least as effective as bezafibrate”. Moreover, the change in vivo at 200 mg/kg in assay [2] (setting [3]) was -77%; in assay [2] (setting [4]), -87%.

Turning to `Cc1cc(SCCCc2ccc(OCCCC(C)(C)C(=O)O)cc2)c(C)c(C)c1O` [Example 4, 2,2-dimethyl-5-{4-[3-(4-hydroxy-2,3,5-trimethylphenylthio)propyl]phenoxy}pentanoic acid], the IC50 in assay [1] turned out to be 0.46 µM. Moreover, the results for the change in vivo at 200 mg/kg in assay [2] (setting [3]) and in assay [2] (setting [4]) were -48% and -77%, respectively.

Consider `Cc1cc(SCCCOc2ccc(OCCCC(C)(C)C(=O)O)cc2)c(C)c(C)c1O` [Example 6, 2,2-dimethyl-5-{4-[3-(4-hydroxy-2,3,5-trimethylphenylthio)propyloxy]phenoxy}pentanoic acid], for which, in assay [1], the IC50 was determined as 0.17 µM. For the same molecule, the change in vivo at 200 mg/kg in assay [2] (setting [3]) is -39%; in assay [2] (setting [4]) it was -59%.

Consider `Cc1cc(SCCc2cccc(OCCCC(C)(C)C(=O)O)c2)c(C)c(C)c1O` [Example 7, 2,2-dimethyl-5-{3-[2-(4-hydroxy-2,3,5-trimethylphenylthio)ethyl]phenoxy}pentanoic acid], for which, in assay [1], the IC50 was determined as 0.068 µM. Besides, in assay [2], the “hypocholesterolaemic effect compared with bezafibrate (in words)” value is “hypocholesterolaemic effect at least as great as bezafibrate”. Moreover, the “triglyceride-lowering effectiveness compared with bezafibrate (in words)” value in assay [2] was “statistically at least as effective as bezafibrate”. In addition, the results for the change in vivo at 200 mg/kg in assay [2] (setting [3]) and in assay [2] (setting [4]) were -47% and -83%, respectively.

As for `CC(C)(CCCOc1cccc(CCSc2cc(C(C)(C)C)c(O)c(C(C)(C)C)c2)c1)C(=O)O` [Example 8, 2,2-dimethyl-5-{3-[2-(3,5-di-tert-butyl-4-hydroxyphenylthio)ethyl]phenoxy}pentanoic acid], in assay [1], the IC50 came to 0.38 µM. The change in vivo at 200 mg/kg in assay [2] (setting [3]) and in assay [2] (setting [4]) was -59% in each case.

As to `Cc1cc(OCCCOc2ccc(OCCCC(C)(C)C(=O)O)cc2)c(C)c(C)c1O` [Example 11, 2,2-dimethyl-5-{4-[3-(4-hydroxy-2,3,5-trimethylphenoxy)propyloxy]phenoxy}pentanoic acid], the IC50 in assay [1] amounted to 0.19 µM. Also, the change in vivo at 200 mg/kg in assay [2] (setting [3]) was -55%; in assay [2] (setting [4]) it was -60%.

As for `CC(C)(CCCOc1ccc(OCCCOc2cc(C(C)(C)C)c(O)c(C(C)(C)C)c2)cc1)C(=O)O` [Example 12, 2,2-dimethyl-5-{4-[3-(3,5-di-tert-butyl-4-hydroxyphenoxy)propyloxy]phenoxy}pentanoic acid], in assay [1], the IC50 stood at 0.64 µM. Further, in assay [2], the “hypocholesterolaemic effect compared with bezafibrate (in words)” value is “hypocholesterolaemic effect at least as great as bezafibrate” and the “triglyceride-lowering effectiveness compared with bezafibrate (in words)” value is on record as “statistically at least as effective as bezafibrate”. For the same molecule, in assay [2] (setting [3]), the change in vivo at 200 mg/kg was -63%. In assay [2] (setting [4]), the change in vivo at 200 mg/kg is -84%.

Regarding `CC(C)(CCCOc1cccc(CCOc2cc(C(C)(C)C)c(O)c(C(C)(C)C)c2)c1)C(=O)O` [Example 13, 2,2-dimethyl-5-{3-[2-(3,5-di-tert-butyl-4-hydroxyphenoxy)ethyl]phenoxy}pentanoic acid], the IC50 in assay [1] came out at 0.3 µM. Also, in assay [2], the “hypocholesterolaemic effect compared with bezafibrate (in words)” value was “hypocholesterolaemic effect at least as great as bezafibrate” and the “triglyceride-lowering effectiveness compared with bezafibrate (in words)” value is “statistically at least as effective as bezafibrate”. The change in vivo at 200 mg/kg in assay [2] (setting [3]) is -68%. For the same molecule, the change in vivo at 200 mg/kg in assay [2] (setting [4]) is -84%.

With `Cc1cc(OCCCc2ccc(OCCCC(C)(C)C(=O)O)cc2)c(C)c(C)c1O` [Example 15, 2,2-dimethyl-5-{4-[3-(4-hydroxy-2,3,5-trimethylphenoxy)propyl]phenoxy}pentanoic acid], the IC50 in assay [1] turned out to be 0.097 µM. The “hypocholesterolaemic effect compared with bezafibrate (in words)” value in assay [2] is listed as “hypocholesterolaemic effect at least as great as bezafibrate”. In assay [2], the “triglyceride-lowering effectiveness compared with bezafibrate (in words)” value is on record as “statistically at least as effective as bezafibrate”. Moreover, the change in vivo at 200 mg/kg was -77% in assay [2] (setting [3]) and -93% in assay [2] (setting [4]).

Consider `CC(C)(CCCOc1ccc(CCOc2cc(C(C)(C)C)c(O)c(C(C)(C)C)c2)cc1)C(=O)O` [Example 16, 2,2-dimethyl-5-{4-[2-(4-hydroxy-3,5-di-tert-butylphenoxy)ethyl]phenoxy}pentanoic acid], for which the IC50 in assay [1] was 0.77 µM. The change in vivo at 200 mg/kg in assay [2] (setting [3]) is -66%; in assay [2] (setting [4]), -54%.

Take `CC(C)(CCCOc1cccc(CCCc2cc(C(C)(C)C)c(O)c(C(C)(C)C)c2)c1)C(=O)O` [Example 20, 2,2-dimethyl-5-{3-[3-(4-hydroxy-3,5-di-tert-butylphenyl)propyl]phenoxy}pentanoic acid]: the IC50 in assay [1] amounted to 1.1 µM. Further, the change in vivo at 200 mg/kg was -58% in assay [2] (setting [3]) and -71% in assay [2] (setting [4]).

For the origin of these results see patent publication US5734077A, “Substituted 2,2-dimethyl-omega-phenoxyalkanoic acids and esters” (Adir ET Compagnie, priority 1995, dated 1998).
